Legend:
[1] = test system: A53T α-synuclein-expressing BE-M17 cells; assay: XTT Cytotoxicity assay - protection against rotenone-induced cytotoxicity; assay type: cell-based; details: 40-44 hours
Source text: (§1) Therefore, to test the therapeutic potential of the compounds, two cell-based assays were utilized. In both assays, rotenone is used to induce mitochondrial oxidative stress and α-synuclein aggregation. The first assay utilizes the binding of the fluorescent dye thioflavin S to structures with high β-sheet content including α-synuclein fibrils. Therefore, quantitative assessment of the extent of thioflavin S-positive staining of fixed cells is used to test the ability of the compounds to decrease the amount of α-synuclein aggregates. In the second assay, cell viability is assessed using the XTT Cytotoxicity assay, which is dependent on intact, functional mitochondria in live cells. Thus, the XTT Cytotoxicity assay is used to test the ability of the compounds to ameliorate the mitochondrial toxicity and resulting loss of viability associated with the accumulation of α-synuclein aggregates. Phrased another way, the XTT Cytotoxicity assay is used to gauge the compounds neuroprotective efficacy. These studies are presented in the following examples.
(§2) BE-M17 human neuroblastoma cells stably transfected with A53T-mutant human α-synuclein were obtained. Cell culture reagents were obtained from Gibco/Invitrogen, and cells were grown in OPTIMEM supplemented with 10% FBS, Penicillin (100 units/mil)-Streptomycin (100 μg/ml) and 500 μg/ml G418 as previously described (Ostrerova-Golts et al., J. Neurosci., 20:6048-6054, 2000).
Research has shown that the accumulation of α-synuclein fibrils in Lewy bodies contributes mechanistically to the degradation of neurons in Parkinson's disease and related disorders (Polymeropoulos et al., Science 276:2045-2047, 1997; Kruger et al., Nature Genet. 18:106-108, 1998). Here, the XTT Cytotoxicity assay (hereafter referred to as the XTT assay) was used to measure the ability of test compounds to protect against rotenone-induced cytotoxicity (neuroprotective ability). The assay is based on the principle that conversion of the yellow tetrazolium salt XTT to form an orange formazan dye (that absorbs light around 490 nm) occurs only in metabolically active, viable cells. Therefore, light absorbance at 490 nm is proportional to cell viability. For this assay, cells were plated in 96 well tissue culture dishes at 10^4 cells per well. After 24 hours, cells were treated with 500 nM or 2 μM rotenone, or vehicle (0.05% DMSO) as indicated. Immediately after rotenone addition, compounds were added at the indicated concentration. […] Untreated cells received cell culture media only (no compound, with or without rotenone). After 40-44 hours of treatment, conditioned media was removed and replaced with 100 μl fresh media and 50 μl XTT labeling reaction mixture according to the manufacturer's recommendations. Four to five hours later, the absorbance at 490 nm was measured and corrected for absorbance at the 700 nm reference wavelength. […] Percent inhibition of cell death was calculated as the proportion of the rotenone-induced absorbance (viability) decrease that was eliminated by test compound treatment.

[2] = test system: BE-M17 human neuroblastoma cells overexpressing A53T α-synuclein; assay: Thioflavin S aggregation assay in rotenone-treated cells; assay type: cell-based; details: 500 nM, 1 μM or 5 μM rotenone (FIGS. 4A-E)
Source text: as §1, §2
Thioflavin S is commonly used to detect amyloid-containing structures in situ, including in brain tissue (Vallet et al., Acta Neuropathol., 83:170-178, 1992), and cultured cells (Ostrerova-Golts et al., J. Neurosci., 20:6048-6054, 2000), whereas thioflavin T is often used as an in vitro reagent to analyze the aggregation of soluble amyloid proteins into fibrils enriched in β-pleated sheet structures (LeVine III, Prot. Sci., 2:404-410, 1993). Therefore, Thioflavin S histochemistry was used on cultured cells to detect aggregates containing a high degree of […] structures that formed in response to oxidative stress-inducing agents (in this case rotenone) as previously described, with minor modifications (Ostrerova-Golts et al., J. Neurosci, 20:6048-6054, 2000). Briefly, for these studies, cells were grown on Poly-D-Lysine coated glass slide chambers at approximately 3×10^4 cells/cm^2. After 24 hours, cells were treated with 500 nM, 1 μM or 5 μM rotenone (Sigma) or vehicle (0.05% DMSO) as indicated. Immediately after rotenone (or vehicle) addition, compounds were added at the indicated concentration, or cell culture media only (no compound) in the presence of rotenone was added. Identical treatments were repeated after 48 hours. After an additional 48 hours, cells were fixed for 25 minutes in 3% paraformaldehyde. After a PBS wash, the cells were incubated with 0.015% thioflavin S in 50% ethanol for 25 minutes, washed twice for four minutes in 50% ethanol and twice for five minutes in deionized water and then mounted using an aqueous-based mountant designed to protect against photobleaching. Aggregates that bind to thioflavin S were detected with a fluorescent microscope using a High Q FITC filter set (480 to 535 nm bandwidth) and a 20× objective lens unless otherwise indicated. Between 8 and 16 representative images per condition were selected, imaged and processed by an experimenter who was blinded to treatment conditions. To assess the amount of thioflavin S-positive aggregates, the total area per field covered by thioflavin S-positive inclusions was determined. […] Spurious, non-cell associated fluorescence was manually removed. Unless indicated otherwise, data represent group means ±SEM. Statistical analyses were performed with GraphPad Prism (GraphPad Inc). Differences between means (two samples) were assessed by the […]. Differences among multiple means were assessed by one-factor ANOVA followed by Tukey's multiple comparison test.

C=C(C)[C@H]1Cc2c(ccc3c2O[C@@H]2COc4cc(OC)c(OC)cc4[C@@H]2C3=O)O1 [rotenone, reference compound]
decrease of viability relative to untreated cells ([1]; 500 nM rotenone): 30-40% | decrease of viability relative to untreated cells ([1]; 2 μM rotenone): 40-50% | thioflavin S-positive aggregates relative to vehicle-treated control cells [2]: dose-dependent increase in thioflavin S-positive aggregates
